Reference: patent US6391863B1, “Use of carbohydrates for promoting skin desquamation” (L'Oreal, priority 1995, dated 2002)

Test system: Banderia simplicifolia isolectin B4
Experiment: Inhibition of lectin-induced haemagglutination (model of corneocyte cohesion)
Assay type: cell-based
Conditions: rabbit erythrocytes; lectin at twice its minimum haemagglutinating concentration; carbohydrate starting solution 0.1M, successive dilutions; 30 min contact at ambient temperature
Experimental: A test to measure the efficacy of the carbohydrates was carried out in vitro. […] The principle of the test lies in the fact that the lectin causes agglutination of the erythrocytes. The products to be tested, which are prepared at various dilutions, are added to the lectin solutions. The minimum concentration of product allowing the inhibition of haemagglutination caused by the lectin is measured. […] To carry out the tests, rabbit erythrocytes marketed by the company Biomérieux under the reference 72291 are employed. These erythrocytes are used in 50% suspension in water. The lectin used is Banderia simplicifolia isolectin B4, marketed by the company SYGMA. All the solutions are diluted in phosphate buffer containing calcium and magnesium. The lectin is dissolved in the phosphate buffer at a concentration of 1 mg/ml. 25 μl of phosphate buffer are distributed in all the wells of the microtitre plates. 25 μl of the lectin to be tested are added to the second well. After homogenization, 25 μl from this well are transferred into the following well and so on to obtain successive dilutions. The erythrocytes are diluted to 1/10^e (fresh solution) . 5 μl of the suspension and 5 μl of the contents of a well are placed on a plate. After mixing by rotation, it is observed whether or not there is haemagglutination. The latter develops in 5 min at the maximum. The minimum quantity of lectin is thus measured, which allows a clear erythrocyte haemagglutination to be obtained. After having measured the minimum quantity of lectin which allows a clear erythrocyte haemagglutination to be obtained, it is chosen to work at twice the concentration. 25 μl of phosphate buffer are placed in microtitre plates to carry out a negative control. In the other wells are distributed 25 μl of lectin at the determined concentration. In the second well are added 25 μl of phosphate buffer to obtain a positive control. In the third well are placed 25 μl of the carbohydrate derivative to be tested in solution at a concentration of 0.1M. After homogenization, 25 μl from this well are taken and placed in the following well and so on so as to obtain successive dilutions. After having left the lectin and the carbohydrate derivative in contact for 30 min at ambient temperature, 5 μl are placed on a plate and are mixed with 5 μl of erythrocyte suspension. It is observed whether or not there is haemagglutination after agitation by rotation. The lowest carbohydrate dilution allowing inhibition of haemagglutination to be observed is measured. The result is given as a fraction (corresponding to the dilution) of the initial concentration (0.1M).

Compound | lowest carbohydrate dilution allowing inhibition of haemagglutination to be observed, given as a fraction (corresponding to the dilution) of the initial concentration (0.1M)
N-2-ethylhexyloxy-carbonyl-N-methyl-D-glucamine | 1/16
CCCCCCCCOC(=O)N(C)C[C@H](O)[C@@H](O)[C@H](O)[C@H](O)CO [N-octyloxycarbonyl-N-methyl-D-glucamine] | 1/64
CCCCCCCC(=O)OC[C@H]1O[C@H](O[C@H]2[C@H](O)[C@@H](O)[C@H](O)O[C@@H]2CO)[C@H](O)[C@@H](O)[C@@H]1O [6′-O-octanoyl-D-maltose, 6′-O-octanoyl-β-D-maltose] | ¼
CC(=O)N[C@H]1C(O)O[C@H](CO)[C@@H](O)[C@@H]1O (stereo partly drawn) [N-acetyl-D-glucosamine, reference compound] | no inhibition observed
